Experimental data published in ChEMBL document CHEMBL4630902 (2021).

Legend:
[1] = target: Muscarinic acetylcholine receptor M3 (Homo sapiens) (UniProt P20309); conditions: Compound concentration 10.0 uM
[2] = target: D(3) dopamine receptor (Homo sapiens) (UniProt P35462); conditions: Compound concentration 10.0 uM
[3] = target: 5-hydroxytryptamine receptor 6 (Homo sapiens) (UniProt P50406); conditions: Compound concentration 10.0 uM
[4] = target: Alpha-1A adrenergic receptor (Homo sapiens) (UniProt P35348); conditions: Compound concentration 10.0 uM
[5] = target: Kappa-type opioid receptor (Homo sapiens) (UniProt P41145); conditions: Compound concentration 10.0 uM
[6] = target: Sigma intracellular receptor 2 (Homo sapiens) (UniProt Q5BJF2); conditions: Compound concentration 10.0 uM
[7] = target: 5-hydroxytryptamine receptor 1A (Homo sapiens) (UniProt P08908); conditions: Compound concentration 10.0 uM
Chain of 5-hydroxytryptamine receptor 1A (Homo sapiens) (P08908 whole entry): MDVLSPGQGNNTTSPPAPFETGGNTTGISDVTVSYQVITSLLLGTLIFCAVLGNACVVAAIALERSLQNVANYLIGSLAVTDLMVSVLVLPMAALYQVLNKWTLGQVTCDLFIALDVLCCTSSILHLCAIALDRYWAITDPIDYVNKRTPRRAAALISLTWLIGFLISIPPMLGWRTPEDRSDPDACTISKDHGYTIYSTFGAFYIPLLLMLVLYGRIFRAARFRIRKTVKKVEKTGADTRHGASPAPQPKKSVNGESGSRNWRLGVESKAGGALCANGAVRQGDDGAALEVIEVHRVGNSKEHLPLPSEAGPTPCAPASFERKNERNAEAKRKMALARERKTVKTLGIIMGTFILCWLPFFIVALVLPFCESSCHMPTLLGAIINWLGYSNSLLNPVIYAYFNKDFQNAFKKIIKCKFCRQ

[8] = target: Beta-3 adrenergic receptor (Homo sapiens) (UniProt P13945); conditions: Compound concentration 10.0 uM
[9] = target: Beta-2 adrenergic receptor (Homo sapiens) (UniProt P07550); conditions: Compound concentration 10.0 uM
Chain of Beta-2 adrenergic receptor (Homo sapiens) (P07550 whole entry, looked up): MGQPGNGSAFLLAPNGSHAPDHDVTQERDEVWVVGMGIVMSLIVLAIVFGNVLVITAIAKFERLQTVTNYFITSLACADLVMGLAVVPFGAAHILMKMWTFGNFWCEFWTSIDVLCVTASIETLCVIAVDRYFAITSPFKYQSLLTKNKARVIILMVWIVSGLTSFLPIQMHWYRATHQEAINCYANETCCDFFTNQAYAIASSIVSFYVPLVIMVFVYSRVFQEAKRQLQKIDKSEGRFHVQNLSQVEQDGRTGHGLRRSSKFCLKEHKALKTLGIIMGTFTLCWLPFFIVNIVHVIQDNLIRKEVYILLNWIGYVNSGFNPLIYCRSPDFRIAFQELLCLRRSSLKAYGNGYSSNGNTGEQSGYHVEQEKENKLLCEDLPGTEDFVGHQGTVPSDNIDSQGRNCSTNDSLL

[10] = target: 5-hydroxytryptamine receptor 2A (Homo sapiens) (UniProt P28223); conditions: Compound concentration 10.0 uM
Chain of 5-hydroxytryptamine receptor 2A (Homo sapiens) (P28223 whole entry): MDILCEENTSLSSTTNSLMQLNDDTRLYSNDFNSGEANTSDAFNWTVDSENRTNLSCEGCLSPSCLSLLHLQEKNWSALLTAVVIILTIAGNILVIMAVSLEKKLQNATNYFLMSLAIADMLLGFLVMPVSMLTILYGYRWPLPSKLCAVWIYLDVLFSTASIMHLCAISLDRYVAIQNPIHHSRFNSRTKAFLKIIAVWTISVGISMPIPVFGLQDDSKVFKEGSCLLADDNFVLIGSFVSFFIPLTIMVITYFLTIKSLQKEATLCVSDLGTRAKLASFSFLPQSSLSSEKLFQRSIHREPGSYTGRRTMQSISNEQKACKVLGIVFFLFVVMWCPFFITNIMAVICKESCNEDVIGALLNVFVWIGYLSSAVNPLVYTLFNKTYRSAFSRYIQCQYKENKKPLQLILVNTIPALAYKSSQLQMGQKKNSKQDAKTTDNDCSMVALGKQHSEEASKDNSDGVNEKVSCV

[11] = target: Delta-type opioid receptor (Homo sapiens) (UniProt P41143); conditions: Compound concentration 10.0 uM
Chain of Delta-type opioid receptor (Homo sapiens) (P41143 whole entry): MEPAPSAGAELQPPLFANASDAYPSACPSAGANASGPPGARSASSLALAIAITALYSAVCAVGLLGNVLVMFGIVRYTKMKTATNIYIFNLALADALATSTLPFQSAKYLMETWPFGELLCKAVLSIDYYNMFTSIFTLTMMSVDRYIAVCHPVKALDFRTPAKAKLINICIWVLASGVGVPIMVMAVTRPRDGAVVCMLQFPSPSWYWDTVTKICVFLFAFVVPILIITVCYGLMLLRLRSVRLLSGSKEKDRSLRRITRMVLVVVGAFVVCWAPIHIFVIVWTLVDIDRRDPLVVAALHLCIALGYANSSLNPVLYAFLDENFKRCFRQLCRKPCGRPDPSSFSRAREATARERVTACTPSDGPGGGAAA

[12] = target: 5-hydroxytryptamine receptor 1B (Homo sapiens) (UniProt P28222); conditions: Compound concentration 10.0 uM
[13] = target: Muscarinic acetylcholine receptor M4 (Homo sapiens) (UniProt P08173); conditions: Compound concentration 10.0 uM
Chain of Muscarinic acetylcholine receptor M4 (Homo sapiens) (P08173 whole entry): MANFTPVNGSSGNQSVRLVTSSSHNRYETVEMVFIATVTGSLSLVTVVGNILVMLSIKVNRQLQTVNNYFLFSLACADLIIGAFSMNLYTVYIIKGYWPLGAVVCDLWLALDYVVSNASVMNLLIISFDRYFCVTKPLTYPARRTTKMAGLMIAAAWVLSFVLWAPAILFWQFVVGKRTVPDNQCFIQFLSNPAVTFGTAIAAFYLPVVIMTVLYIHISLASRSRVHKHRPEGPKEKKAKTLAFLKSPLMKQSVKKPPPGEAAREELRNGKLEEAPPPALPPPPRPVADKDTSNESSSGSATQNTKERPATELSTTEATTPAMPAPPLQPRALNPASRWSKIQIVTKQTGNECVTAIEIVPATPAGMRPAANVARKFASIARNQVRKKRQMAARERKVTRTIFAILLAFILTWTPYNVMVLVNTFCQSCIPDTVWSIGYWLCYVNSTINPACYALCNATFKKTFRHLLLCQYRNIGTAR

[14] = target: 5-hydroxytryptamine receptor 1E (Homo sapiens) (UniProt P28566); conditions: Compound concentration 10.0 uM
[15] = target: Muscarinic acetylcholine receptor M5 (Homo sapiens) (UniProt P08912); conditions: Compound concentration 10.0 uM
[16] = target: T1, GABA-A receptor; anion channel (Rattus norvegicus) (UniProt O09028+P15431+P18506+P18508+P19969+P20236+P23574+P23576+P28471+P28473+P30191+P62813+P63079+P63138+Q91ZM7+Q9ES14); conditions: Compound concentration 10.0 uM
[17] = target: Alpha-2A adrenergic receptor (Homo sapiens) (UniProt P08913); conditions: Compound concentration 10.0 uM
[18] = target: Mu-type opioid receptor (Homo sapiens) (UniProt P35372); conditions: Compound concentration 10.0 uM
[19] = target: D(4) dopamine receptor (Homo sapiens) (UniProt P21917); conditions: Compound concentration 10.0 uM
Chain of D(4) dopamine receptor (Homo sapiens) (P21917 whole entry): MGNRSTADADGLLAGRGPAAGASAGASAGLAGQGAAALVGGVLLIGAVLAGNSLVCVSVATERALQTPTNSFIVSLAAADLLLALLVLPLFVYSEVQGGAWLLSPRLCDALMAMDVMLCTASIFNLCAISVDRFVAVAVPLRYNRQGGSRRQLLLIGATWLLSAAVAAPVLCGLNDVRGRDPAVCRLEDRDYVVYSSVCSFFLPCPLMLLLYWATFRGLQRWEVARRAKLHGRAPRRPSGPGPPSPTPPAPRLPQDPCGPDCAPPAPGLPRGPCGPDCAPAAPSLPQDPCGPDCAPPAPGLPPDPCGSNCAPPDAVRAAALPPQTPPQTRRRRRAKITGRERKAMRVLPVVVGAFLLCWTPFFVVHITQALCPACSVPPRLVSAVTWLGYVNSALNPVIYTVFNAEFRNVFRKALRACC

[20] = target: D(1A) dopamine receptor (Homo sapiens) (UniProt P21728); conditions: Compound concentration 10.0 uM
[21] = target: T1, GABA-A receptor; anion channel (Rattus norvegicus); conditions: Compound concentration 10.0 uM; remark: listed apart in the source
[22] = target: Muscarinic acetylcholine receptor M1 (Homo sapiens) (UniProt P11229); conditions: Compound concentration 10.0 uM
[23] = target: D(1B) dopamine receptor (Homo sapiens) (UniProt P21918); conditions: Compound concentration 10.0 uM
Chain of D(1B) dopamine receptor (Homo sapiens) (P21918 whole entry): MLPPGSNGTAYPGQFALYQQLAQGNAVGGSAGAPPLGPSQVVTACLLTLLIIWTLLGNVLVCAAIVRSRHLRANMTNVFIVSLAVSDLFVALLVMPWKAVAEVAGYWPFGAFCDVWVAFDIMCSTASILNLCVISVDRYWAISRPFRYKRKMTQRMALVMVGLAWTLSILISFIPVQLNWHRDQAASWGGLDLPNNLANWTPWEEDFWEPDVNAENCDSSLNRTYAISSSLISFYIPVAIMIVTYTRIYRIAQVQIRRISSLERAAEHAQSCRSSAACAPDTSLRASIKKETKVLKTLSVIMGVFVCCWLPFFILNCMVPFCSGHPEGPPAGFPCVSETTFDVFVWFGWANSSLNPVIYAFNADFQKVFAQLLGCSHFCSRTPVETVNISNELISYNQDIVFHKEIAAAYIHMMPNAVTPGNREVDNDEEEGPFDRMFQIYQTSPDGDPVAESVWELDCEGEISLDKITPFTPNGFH

[24] = target: Muscarinic acetylcholine receptor M2 (Homo sapiens) (UniProt P08172); conditions: Compound concentration 10.0 uM
[25] = target: Beta-1 adrenergic receptor (Homo sapiens) (UniProt P08588); conditions: Compound concentration 10.0 uM
Chain of Beta-1 adrenergic receptor (Homo sapiens) (P08588 whole entry, looked up): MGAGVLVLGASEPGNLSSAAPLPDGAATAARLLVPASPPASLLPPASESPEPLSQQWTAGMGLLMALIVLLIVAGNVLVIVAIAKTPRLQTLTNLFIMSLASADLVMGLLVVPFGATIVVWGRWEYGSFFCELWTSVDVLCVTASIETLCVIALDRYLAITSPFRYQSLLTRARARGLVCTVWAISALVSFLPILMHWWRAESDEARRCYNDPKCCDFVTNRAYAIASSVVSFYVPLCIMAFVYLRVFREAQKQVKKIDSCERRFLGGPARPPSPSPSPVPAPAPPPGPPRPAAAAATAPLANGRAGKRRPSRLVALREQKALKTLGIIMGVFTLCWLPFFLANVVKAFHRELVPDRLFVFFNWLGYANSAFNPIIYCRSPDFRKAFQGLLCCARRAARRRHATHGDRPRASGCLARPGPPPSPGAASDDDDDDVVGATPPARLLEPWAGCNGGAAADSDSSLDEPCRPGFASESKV

[26] = target: Histamine H2 receptor (Homo sapiens) (UniProt P25021); conditions: Compound concentration 10.0 uM
Chain of Histamine H2 receptor (Homo sapiens) (P25021 whole entry): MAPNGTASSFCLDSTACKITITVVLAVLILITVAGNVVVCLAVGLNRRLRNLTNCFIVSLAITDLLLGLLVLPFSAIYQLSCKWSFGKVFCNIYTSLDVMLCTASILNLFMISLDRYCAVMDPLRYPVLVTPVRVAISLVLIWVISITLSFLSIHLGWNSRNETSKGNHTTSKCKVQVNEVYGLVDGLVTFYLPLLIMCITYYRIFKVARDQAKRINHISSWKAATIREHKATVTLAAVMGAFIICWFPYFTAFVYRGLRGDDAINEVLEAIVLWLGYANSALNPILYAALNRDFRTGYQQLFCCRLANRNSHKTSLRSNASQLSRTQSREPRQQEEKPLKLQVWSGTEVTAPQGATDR

[27] = target: Alpha-1B adrenergic receptor (Homo sapiens) (UniProt P35368); conditions: Compound concentration 10.0 uM
Chain of Alpha-1B adrenergic receptor (Homo sapiens) (P35368 whole entry): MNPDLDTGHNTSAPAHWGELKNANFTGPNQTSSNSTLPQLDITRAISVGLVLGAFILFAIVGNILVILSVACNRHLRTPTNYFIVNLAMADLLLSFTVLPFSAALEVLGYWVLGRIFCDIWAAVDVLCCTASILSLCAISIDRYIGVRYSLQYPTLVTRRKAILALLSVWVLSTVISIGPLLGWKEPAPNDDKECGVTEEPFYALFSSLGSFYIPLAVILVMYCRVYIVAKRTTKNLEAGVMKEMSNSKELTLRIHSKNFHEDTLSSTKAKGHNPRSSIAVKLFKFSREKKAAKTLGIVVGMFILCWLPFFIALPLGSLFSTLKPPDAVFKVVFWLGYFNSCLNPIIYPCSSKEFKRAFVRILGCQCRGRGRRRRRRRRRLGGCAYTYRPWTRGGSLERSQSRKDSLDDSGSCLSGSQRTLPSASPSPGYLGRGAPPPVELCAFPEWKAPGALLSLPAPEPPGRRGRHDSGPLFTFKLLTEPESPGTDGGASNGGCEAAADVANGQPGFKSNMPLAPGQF

[28] = target: Sigma non-opioid intracellular receptor 1 (Homo sapiens) (UniProt Q99720); conditions: Compound concentration 10.0 uM
[29] = target: Histamine H3 receptor (Homo sapiens) (UniProt Q9Y5N1); conditions: Compound concentration 10.0 uM
[30] = target: Histamine H1 receptor (Homo sapiens) (UniProt P35367); conditions: Compound concentration 10.0 uM
[31] = target: 5-hydroxytryptamine receptor 7 (Homo sapiens) (UniProt P34969); conditions: Compound concentration 10.0 uM
[32] = target: Alpha-1D adrenergic receptor (Homo sapiens) (UniProt P25100); conditions: Compound concentration 10.0 uM
[33] = target: Alpha-2C adrenergic receptor (Homo sapiens) (UniProt P18825); conditions: Compound concentration 10.0 uM
[34] = target: 5-hydroxytryptamine receptor 3A (Homo sapiens) (UniProt P46098); conditions: Compound concentration 10.0 uM
Chain of 5-hydroxytryptamine receptor 3A (Homo sapiens) (P46098 whole entry): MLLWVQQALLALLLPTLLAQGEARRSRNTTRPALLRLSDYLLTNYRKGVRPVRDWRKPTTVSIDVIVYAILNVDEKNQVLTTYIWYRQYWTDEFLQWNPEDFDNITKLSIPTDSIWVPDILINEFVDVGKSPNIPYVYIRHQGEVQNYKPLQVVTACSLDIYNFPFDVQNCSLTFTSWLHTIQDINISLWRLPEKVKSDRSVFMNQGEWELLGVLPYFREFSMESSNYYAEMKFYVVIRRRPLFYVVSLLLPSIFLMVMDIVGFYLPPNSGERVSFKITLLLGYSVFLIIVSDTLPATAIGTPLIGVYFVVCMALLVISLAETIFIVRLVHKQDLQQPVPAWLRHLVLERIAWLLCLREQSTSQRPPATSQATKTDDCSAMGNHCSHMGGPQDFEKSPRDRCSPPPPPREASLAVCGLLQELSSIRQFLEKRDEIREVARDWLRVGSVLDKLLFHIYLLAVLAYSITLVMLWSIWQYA

[35] = target: 5-hydroxytryptamine receptor 1D (Homo sapiens) (UniProt P28221); conditions: Compound concentration 10.0 uM
[36] = target: Alpha-2B adrenergic receptor (Homo sapiens) (UniProt P18089); conditions: Compound concentration 10.0 uM
[37] = target: D(2) dopamine receptor (Homo sapiens) (UniProt P14416); conditions: Compound concentration 10.0 uM
[38] = target: Sodium-dependent serotonin transporter (Homo sapiens) (UniProt P31645); conditions: Compound concentration 10.0 uM
[39] = target: Sodium-dependent noradrenaline transporter (Homo sapiens) (UniProt P23975); conditions: Compound concentration 10.0 uM
[40] = target: 5-hydroxytryptamine receptor 2C (Homo sapiens) (UniProt P28335); conditions: Compound concentration 10.0 uM
[41] = organism: Rattus norvegicus; conditions: Compound concentration 10.0 uM
[42] = target: Histamine H4 receptor (Homo sapiens) (UniProt Q9H3N8); conditions: Compound concentration 10.0 uM
[43] = target: 5-hydroxytryptamine receptor 5A (Homo sapiens) (UniProt P47898); conditions: Compound concentration 10.0 uM
[44] = target: 5-hydroxytryptamine receptor 2B (Homo sapiens) (UniProt P41595); conditions: Compound concentration 10.0 uM
[45] = BET mutant TR-FRET assay (BRDT BD2); set-up: species or system Homo sapiens

## CNC(=O)c1cc(C(=O)N[C@H]2[C@@H]3COC[C@@H]32)cc2c1O[C@@H](CF)[C@@H]2c1ccccc1
[1]
  inhibition: 12.6%
[2]
  inhibition: 4.11%
[3]
  inhibition: -1.21%
[4]
  inhibition: 7.39%
[5]
  inhibition: 41.1%
[6]
  inhibition: 35.6%
[7]
  inhibition: 14.9%
[8]
  inhibition: 31%
[9]
  inhibition: 9.35%
[10]
  inhibition: 11.6%
[11]
  inhibition: 17.1%
[12]
  inhibition: -8.28%
[13]
  inhibition: 6.19%
[14]
  inhibition: 0.03%
[15]
  inhibition: 18%
[16]
  inhibition: 14.5%
[17]
  inhibition: 13.8%
[18]
  inhibition: 4.77%
[19]
  inhibition: 17.7%
[20]
  inhibition: -6.73%
[21]
  inhibition: 74.2%
[22]
  inhibition: 12.1%
[23]
  inhibition: -7.16%
[24]
  inhibition: -7.3%
[25]
  inhibition: 6.93%
[26]
  inhibition: 4.49%
[27]
  inhibition: -0.98%
[28]
  inhibition: 10.2%
[29]
  inhibition: -5.65%
[30]
  inhibition: -1.58%
[31]
  inhibition: 1.31%
[32]
  inhibition: -7.87%
[33]
  inhibition: 7.66%
[34]
  inhibition: 10.6%
[35]
  inhibition: -8.07%
[36]
  inhibition: 22.8%

## CNC(=O)c1cc(C(=O)N[C@H]2[C@@H]3COC[C@@H]32)cc2c1O[C@H](CF)[C@H]2c1ccccc1 [GSK973]
[37]
  inhibition: 60.9%
[1]
  inhibition: 11.2%
[2]
  inhibition: 81.8%
[38]
  inhibition: 27.2%
[3]
  inhibition: 16.8%
[39]
  inhibition: 0.32%
[4]
  inhibition: -4.55%
[5]
  inhibition: 1.22%
[40]
  inhibition: 22.2%
[6]
  inhibition: 14.3%
[7]
  inhibition: 8.96%
[8]
  inhibition: 15.5%
[9]
  inhibition: 17.9%
[10]
  inhibition: 13.4%
[11]
  inhibition: 2.46%
[12]
  inhibition: -0.1%
[13]
  inhibition: 2.78%
[15]
  inhibition: 2.23%
[41]
  inhibition: 9.06%
[16]
  inhibition: 4.07%
[17]
  inhibition: 1.67%
[42]
  inhibition: 9.36%
[43]
  inhibition: 12.5%
[18]
  inhibition: -5.14%
[44]
  inhibition: 28.2%
[19]
  inhibition: 81.6%
[20]
  inhibition: 9.7%
[21]
  inhibition: 30.2%
[23]
  inhibition: 28.3%
[24]
  inhibition: -5.52%
[25]
  inhibition: 6.03%
[26]
  inhibition: -3.94%
[27]
  inhibition: 1.49%
[28]
  inhibition: 28.4%
[29]
  inhibition: -9.57%
[45]
  pIC50: 7.4
[31]
  inhibition: 13.6%
[32]
  inhibition: 3.51%
[33]
  inhibition: 8.26%
[34]
  inhibition: 20.2%
[35]
  inhibition: -5.14%
[36]
  inhibition: 12.5%
